# Measurements: US7262173B2, “Chemosensitizing with liposomes containing oligonucleotides” (Georgetown University, priority 1997, dated 2007)
# Tests used:
# SQ-20B cells = conditions: free ODN 100 μM, 1% serum, previously demonstrated, cited from earlier work
# [1] = Plasma pharmacokinetics of raf ODN after i.v. injection; assay type: in vivo, Balb/c nu/nu mice; conditions: 30 mg/kg i.v.
# Protocol: FIG. 3: The plasma concentration-time profile of LE-ATG-AS raf ODN (SEQ ID NO:1), 30 mg/kg LE-ATG-AS raf ODN (SEQ ID NO:1) (top panel) or TG-AS raf ODN (SEQ ID NO:1) (middle panel) was administered […]. in […] nu/nu mice. Blood samples were collected from retro-orbital sinus as indicated times after injection and the ODNs in plasma samples were extracted and analyzed by denaturing gel electrophoresis as explained in the experimental procedures. St standards prepared by spiking known amounts of ATG-AS raf ODN (SEQ ID NO:1) in blank plasma. Top panel: Samples were diluted before electrophoresis as follows: lane 1, 12×; lanes 2 and 3, 4×; lanes 4 and 5, 3.3×; lane 6, 2×; lane 7, 1.4×; lane 8, 1.3×; and lane 9, I×. […] Additional standards (1.4 to >2 log range) were used to determine ODN concentration over a 24 hour period (data not shown). Middle panel: Samples were diluted before loading as follows: lane 1, 4×, lanes 2 and 3, 2×, lanes 4, 5 and 6, I×; lane 7, 0.75×, lanes 8 and […], 0.6×. […]
# The extracts were loaded on to 20% polyacrylamide/3 M urea gels and electrophoresed in TBE buffer. […] The autoradiographs were scanned using a computer program (ImageQuant software, Molecular Dynamics, Sunnyvale, Calif., and USA), and the amounts of ATG-AS raf ODN (SEQ ID NO:1) in various samples were calculated by comparison to standards.
# SQ-20B tumor cells = assay: Intracellular stability of antisense raf ODN in DMTAP:PC:CHOL liposomes; assay type: cell-based, human; conditions: 10 μM, 4 hours, 1% serum
# Protocol: Stability experiments: SQ-20B tumor cells were incubated with a mixture of radiolabeled-(^32P-γATP) and 10 μM of unlabeled antisense raf oligonucleotide (ATG-AS (SEQ ID NO:1)) either in the liposome encapsulated form (LE-ATG-AS (SEQ ID NO:1)) (FIG. 19, Lane 1) or free form (ATG-AS (SEQ ID NO:1)) (FIG. 19, lane 2). The treatment lasted for 4 hours at 37° C. in 1% serum containing medium. Immediately following incubation, cells were washed with phosphate buffered saline (PBS), detached by trypsinization, and collected by centrifugation. The cell pellet was washed twice with PBS, and cells were then lysed in 10 mM Tris-HCl, 200 mM NaCl, 1% SDS, 200 μg/ml proteinase K, pH 7.4 for 2 hours at 37° C. Oligos were extracted with phenol:chloroform, and aqueous fraction was collected. The samples were normalized for equal radioactivity, and analyzed hy denaturing gel electrophoresis (15% polyacrylamide/7M urea), followed by autoradiography. […]
# Stability experiments: SQ-20B tumor cells were incubated with a mixture of radiolabeled (^32P-γATP) and 10 μM of unlabeled antisense raf oligonucleotide (ATG-AS (SEQ ID NO:1)) in the liposome encapsulated form (LE-ATG-AS (SEQ ID NO:1)). […] The samples were normalized for equal radioactivity, and analyzed by denaturing gel electrophoresis (15% polyacrylamide/7M urea), followed by autoradiography. […]
substance,measurement,setting,value
"5′-GTG-CTCCATTGATGC-3′ (antisense GTGCTCCATTGATGC; DNA, linkages s1 o12 s1 (s phosphorothioate, o phosphodiester), methylation of C not given here) [ATG-AS raf ODN, antisense ODN to translation initiation site of human c-raf-1 cDNA; one terminal base linkage at each end phosphorothioate]",ODN taken up by SQ-20B cells,SQ-20B cells; at 6 hours,< 2%
same,maximal uptake by SQ-20B cells,SQ-20B cells; at 12 hours,approximately 4%
same,plasma concentration,[1]; at 5 min,9.75 µg/mL
same,only time at which intact ODN detectable in plasma,[1]; free ODN,5 min
same,integrity of oligonucleotide in treated cells,SQ-20B tumor cells,degraded form
